{
  "source": "patent US20220251054A1",
  "about": "“Analogues and Methods of Treating Rett Syndrome” (The Regents of the University of California, priority 2019, published 2022)",
  "key": {"Mutant IPSCs": {"test_system": "Mutant IPSCs", "assay_type": "cell-based", "details": "10 μM, 48 hours"}, "[1]": {"test_system": "MECP2− (Mutant) interneurons", "experiment": "P21 protein immunofluorescence (senescence marker) in treated neurons", "assay_type": "cell-based", "details": "10 μM, 48 hours, WT and Mutant interneurons"}, "P53": {"target": "P53 (Homo sapiens, UniProt P04637)", "sequence (P04637 whole entry)": "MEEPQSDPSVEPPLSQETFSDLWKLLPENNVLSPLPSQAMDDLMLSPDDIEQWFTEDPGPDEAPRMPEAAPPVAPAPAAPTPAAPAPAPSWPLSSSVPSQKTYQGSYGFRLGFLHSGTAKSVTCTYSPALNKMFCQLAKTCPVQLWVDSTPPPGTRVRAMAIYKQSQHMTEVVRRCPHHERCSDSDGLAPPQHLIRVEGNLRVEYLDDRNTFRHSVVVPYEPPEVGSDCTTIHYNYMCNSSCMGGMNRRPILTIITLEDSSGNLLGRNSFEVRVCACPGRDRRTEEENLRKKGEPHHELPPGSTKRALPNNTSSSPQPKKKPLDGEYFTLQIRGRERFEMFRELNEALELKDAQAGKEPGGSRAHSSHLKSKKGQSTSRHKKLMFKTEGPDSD", "details": "cited from earlier work"}, "Mut Cx+GE organoids": {"test_system": "Mut Cx+GE organoids", "experiment": "Extracellular recording of local field potentials (LFP) in Rett syndrome fusion organoids", "assay_type": "cell-based, human", "details": "for high frequency oscillations (HFOs, about 200-500 Hz) / lower frequency / gamma oscillations (about 40-80 Hz) / spiking activity / spike frequency: Mut Cx+GE organoids treated 48-hr; for high frequency oscillations (HFOs, about 200-500 Hz) / lower frequency / gamma oscillations (about 40-80 Hz): 2 mM VPA or 10 μM Pifithrin-α; for spiking activity / spike frequency: 2 mM sodium valproate (VPA) or 10 μM Pifithrin-α"}, "Cx+Cx organoids": {"test_system": "Cx+Cx organoids", "experiment": "Live organoid calcium imaging (GCaMP6f) with GABAA receptor antagonist", "assay_type": "cell-based, human", "details": "for synchronization of calcium transients / neural activities: Cx+Cx organoids, bicuculline methiodide 100 μM or gabazine 25 μM"}, "Cx+GE organoids": {"test_system": "Cx+GE organoids", "experiment": "Live organoid calcium imaging (GCaMP6f) with GABAA receptor antagonist", "assay_type": "cell-based, human", "details": "for synchronization of calcium transients / neural activities: Cx+GE organoids, bicuculline methiodide 100 μM or gabazine 25 μM"}},
  "note": "Entries after “also recorded” stand apart in the source; their conditions may differ.",
  "data": [
    {"smiles": "Cc1ccc(-c2cn3c4c(sc3n2)CCCC4)cc1", "note": "[Pifithrin β, 2-(p-tolyl)-5,6,7,8-tetrahydroben-zo[d]imidazo[2,1-b]thiazole]", "values": [
      {"measurement": "increased levels of P53 target genes (RT-PCR)", "setting": "Mutant IPSCs", "value": "abrogated"}
    ]},
    {"smiles": "Cc1ccc(C(=O)Cn2c3c(sc2=N)CCCC3)cc1", "note": "[Pifithrin α, 2-(2-imino-4,5,6,7-tetrahydrobenzo[d]thiazol-3(2H)-yl)-1-(p-tolyl)ethan-1-one hydrogen bromide]", "values": [
      {"measurement": "increased levels of P53 target genes (RT-PCR)", "setting": "Mutant IPSCs", "value": "abrogated"},
      {"measurement": "cell senescence (P21 protein level by immunofluorescence)", "setting": "[1]", "value": "block cell senescence due to increased p53 activity"},
      {"measurement": "P53 inhibition", "setting": "P53", "value": "effective P53 inhibitor"},
      {"measurement": "oscillatory activity (extracellular recording)", "setting": "Mut Cx+GE organoids; Mut Cx+GE organoids (RTT) exposed to 10 μM for 48 hours, Day 100", "value": "reveal oscillatory activity at multiple frequencies"},
      {"measurement": "sustained oscillatory activity (PSD)", "setting": "Mut Cx+GE organoids; Mut Cx+GE organoids exposed to 100 μM for 48 hours, Day 100", "value": "shows rescue of sustained oscillatory activity"},
      {"measurement": "high frequency oscillations (HFOs, about 200-500 Hz)", "setting": "Mut Cx+GE organoids", "value": "suppressed HFOs"},
      {"measurement": "lower frequency / gamma oscillations (about 40-80 Hz)", "setting": "Mut Cx+GE organoids", "value": "re-emergence of gamma oscillations"},
      {"measurement": "spiking activity / spike frequency", "setting": "Mut Cx+GE organoids", "value": "similarly reduced spike frequency"}
    ]},
    {"smiles": "CCCC(CCC)C(=O)[O-].[Na+]", "note": "[VPA, sodium valproate]", "values": [
      {"measurement": "high frequency oscillations (HFOs, about 200-500 Hz)", "setting": "Mut Cx+GE organoids", "value": "neither decreased HFOs"},
      {"measurement": "lower frequency / gamma oscillations (about 40-80 Hz)", "setting": "Mut Cx+GE organoids", "value": "nor restored lower frequency oscillations"},
      {"measurement": "spiking activity / spike frequency", "setting": "Mut Cx+GE organoids", "value": "significantly reduced spiking activity"}
    ]},
    {"smiles": "CC(=O)/N=c1\\sc2c(n1CC(=O)c1ccc(C)cc1)CCCC2", "note": "[Pifithrin α-Ac, N-(3-(2-oxo-2-(p-tolyl)ethyl)-4,5,6,7-tetrahydrobenzo[d]thiazol-2(3H)-ylidene)aceta-mide]", "values": [
      {"measurement": "increased levels of P53 target genes (RT-PCR)", "setting": "Mutant IPSCs", "value": "abrogated"}
    ]},
    {"smiles": "COc1ccc(-c2ccc(=N)n(CCCC(=O)O)n2)cc1", "note": "[Gabazine]", "values": [
      {"measurement": "synchronization of calcium transients / neural activities", "setting": "Cx+Cx organoids", "value": "no such effect"},
      {"measurement": "synchronization of calcium transients / neural activities", "setting": "Cx+GE organoids", "value": "epochs of nearly complete synchronization of calcium transients"}
    ]},
    {"smiles": "C[N+]1(C)CCc2cc3c(cc2[C@H]1[C@@H]1OC(=O)c2c1ccc1c2OCO1)OCO3.[I-]", "note": "[BMI, bicuculline methiodide]", "values": [
      {"measurement": "hierarchical clustering: groups of neurons with correlated activity", "setting": "Cx+Cx organoids; Cx+Cx organoids following BMI treatment", "value": "only small groups"},
      {"measurement": "synchronization of calcium transients / neural activities", "setting": "Cx+Cx organoids", "value": "minimal effect; also recorded: no such effect"},
      {"measurement": "hierarchical clustering: groups of neurons with correlated activity", "setting": "Cx+GE organoids; Cx+GE organoids following BMI treatment", "value": "large groups of neurons with highly correlated activity"},
      {"measurement": "synchronization of calcium transients / neural activities", "setting": "Cx+GE organoids", "value": "spontaneous synchronization of neural activities; also recorded: epochs of nearly complete synchronization of calcium transients"}
    ]}
  ]
}
